Laboratory results as given in PubChem BioAssay AID330 (DTP/NCI, 2004).
Values joined by “and” are separate entries in the source; they are usually repeats but may differ in a detail not shown here. Equal values may be shown once. Inconclusive results and toxic doses are left out.

Tested on: P388 leukemia ip, CD2F1 mice, survival T/C
Test: NCI In Vivo Anticancer Drug Screen. Data for tumor model P388 Leukemia (intraperitoneal) in CD2F1 (CDF1) mice
Details: endpoint: median survival time, higher = longer survival
How it was run: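 Mice carrying the transplanted tumor received test compound or vehicle. Survival was recorded in each group, and the value is the treated-group measurement divided by that of the vehicle-treated control group.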

[1] = dose: 50.0 mg/kg/injection, schedule: Q01DX009 (ip), vehicle: saline sonified
[2] = dose: 100.0 mg/kg/injection, schedule: Q01DX009 (ip), vehicle: saline with Tween-80
[3] = dose: 200.0 mg/kg/injection, schedule: Q01DX009 (ip), vehicle: saline with Tween-80
[4] = dose: 50.0 mg/kg/injection, schedule: Q01DX009 (ip), vehicle: Klucel (hydroxypropylcellulose) (HPC)
[5] = dose: 100.0 mg/kg/injection, schedule: Q01DX009 (ip), vehicle: Klucel (hydroxypropylcellulose) (HPC)
[6] = dose: 200.0 mg/kg/injection, schedule: Q01DX009 (ip), vehicle: Klucel (hydroxypropylcellulose) (HPC)
[7] = dose: 12.5 mg/kg/injection, schedule: Q01DX009 (ip), vehicle: saline with Tween-80
[8] = dose: 25.0 mg/kg/injection, schedule: Q01DX009 (ip), vehicle: saline with Tween-80
[9] = dose: 50.0 mg/kg/injection, schedule: Q01DX009 (ip), vehicle: saline with Tween-80
[10] = dose: 32.0 mg/kg/injection, schedule: Q01DX009 (ip), vehicle: Klucel (hydroxypropylcellulose) (HPC)

SMILES: CCNc1ncnc2c1cnn2C
- T/C (dose: 25.0 mg/kg/injection, schedule: Q01DX009 (ip), vehicle: saline sonified): 109 % of control
- T/C [1]: 113 % of control
- T/C (dose: 50.0 mg/kg/injection, schedule: Q04DX003 (ip), vehicle: saline sonified): 112 % of control
- T/C (dose: 100.0 mg/kg/injection, schedule: Q04DX003 (ip), vehicle: saline sonified): 104 % of control
- T/C (dose: 200.0 mg/kg/injection, schedule: Q04DX003 (ip), vehicle: saline sonified): 116 % of control

SMILES: O=[n+]1cc2ccccn2cc1-c1ccccc1
- T/C [2]: 90 % of control
- T/C [3]: 95 % of control
- T/C (dose: 400.0 mg/kg/injection, schedule: Q01DX009 (ip), vehicle: saline with Tween-80): 118 % of control

SMILES: CN(CCN(C)C(=O)CCOS(C)(=O)=O)C(=O)CCOS(C)(=O)=O
- T/C (dose: 12.5 mg/kg/injection, schedule: Q01DX009 (ip), vehicle: saline): 151 % of control
- T/C (dose: 25.0 mg/kg/injection, schedule: Q01DX009 (ip), vehicle: saline): 175 % of control
- T/C (dose: 50.0 mg/kg/injection, schedule: Q01DX009 (ip), vehicle: saline): 192 % of control and 210 % of control
- T/C (dose: 100.0 mg/kg/injection, schedule: Q01DX009 (ip), vehicle: saline): 260 % of control and 290 % of control
- T/C (dose: 200.0 mg/kg/injection, schedule: Q01DX009 (ip), vehicle: saline): 116 % of control and 297 % of control

SMILES: Cn1cnc2cc(NCCCc3ccccc3)c([N+](=O)[O-])cc2c1=O
- T/C (dose: 100.0 mg/kg/injection, schedule: Q04DX003 (ip), vehicle: saline with Tween-80): 103 % of control
- T/C (dose: 200.0 mg/kg/injection, schedule: Q04DX003 (ip), vehicle: saline with Tween-80): 101 % of control
- T/C (dose: 400.0 mg/kg/injection, schedule: Q04DX003 (ip), vehicle: saline with Tween-80): 105 % of control

SMILES: O=C(C=Nc1ccc(Cl)c(Cl)c1)c1ccccc1
- T/C [4]: 100 % of control
- T/C [5]: 100 % of control
- T/C [6]: 94 % of control

SMILES: Cn1cnc([N+](=O)[O-])c1N
- T/C [7]: 106 % of control
- T/C [8]: 119 % of control
- T/C [9]: 103 % of control
- T/C [2]: 106 % of control

SMILES: O=[N+]([O-])c1ccc([I+]c2ccccc2)cc1
- T/C [7]: 154 % of control
- T/C (dose: 25.0 mg/kg/injection, schedule: Q01DX005 (ip), vehicle: saline with Tween-80): 120 % of control and 124 % of control
- T/C [8]: 153 % of control
- T/C [9]: 153 % of control
- T/C (dose: 60.0 mg/kg/injection, schedule: Q01DX005 (ip), vehicle: saline with Tween-80): 98 % of control
- T/C (dose: 100.0 mg/kg/injection, schedule: Q01DX005 (ip), vehicle: saline with Tween-80): 88 % of control

SMILES: CCCCOP(=O)(O)OCCCC.[V]
- T/C (dose: 6.25 mg/kg/injection, schedule: Q01DX009 (ip), vehicle: saline with Tween-80): 99 % of control
- T/C [7]: 96 % of control
- T/C [8]: 97 % of control
- T/C [2]: 104 % of control
- T/C [3]: 103 % of control

SMILES: C=C[Si]12OCCN(CCO1)CCO2
- T/C (dose: 12.5 mg/kg/injection, schedule: Q01DX009 (ip), vehicle: Klucel (hydroxypropylcellulose) (HPC)): 119 % of control
- T/C (dose: 25.0 mg/kg/injection, schedule: Q01DX009 (ip), vehicle: Klucel (hydroxypropylcellulose) (HPC)): 112 % of control
- T/C [4]: 114 % of control
- T/C [5]: 109 % of control and 98 % of control
- T/C [6]: 102 % of control
- T/C (dose: 400.0 mg/kg/injection, schedule: Q01DX009 (ip), vehicle: Klucel (hydroxypropylcellulose) (HPC)): 100 % of control

SMILES: CCn1c2ccccc2c2ccc(N=Cc3ccccc3[N+](=O)[O-])cc21
- T/C (dose: 100.0 mg/kg/injection, schedule: Q04DX003 (ip), vehicle: Klucel (hydroxypropylcellulose) (HPC)): 98 % of control
- T/C (dose: 200.0 mg/kg/injection, schedule: Q04DX003 (ip), vehicle: Klucel (hydroxypropylcellulose) (HPC)): 97 % of control
- T/C (dose: 400.0 mg/kg/injection, schedule: Q04DX003 (ip), vehicle: Klucel (hydroxypropylcellulose) (HPC)): 96 % of control

SMILES: CC(=O)[C@]1(O)Cc2c(O)c3c(c(O)c2[C@@H](OC2CC(N)C(O)C(C)O2)C1)C(=O)c1c(OCC(C)C)cccc1C3=O (stereo partly drawn)
- T/C (dose: 3.13 mg/kg/injection, schedule: Q04DX003 (ip), vehicle: water): 107 % of control and 110 % of control
- T/C (dose: 6.25 mg/kg/injection, schedule: Q04DX003 (ip), vehicle: water): 105 % of control and 119 % of control
- T/C (dose: 12.5 mg/kg/injection, schedule: Q04DX003 (ip), vehicle: water): 101 % of control
- T/C (dose: 25.0 mg/kg/injection, schedule: Q04DX003 (ip), vehicle: water): 121 % of control
- T/C (dose: 50.0 mg/kg/injection, schedule: Q04DX003 (ip), vehicle: water): 101 % of control and 89 % of control

SMILES: Cc1nc2ccccc2c(=O)n1/N=C\c1ccc2c(c1)CCC2
- T/C (dose: 60.0 mg/kg/injection, schedule: Q01DX005 (ip), vehicle: Klucel (hydroxypropylcellulose) (HPC)): 97 % of control
- T/C (dose: 120.0 mg/kg/injection, schedule: Q01DX005 (ip), vehicle: Klucel (hydroxypropylcellulose) (HPC)): 104 % of control
- T/C (dose: 240.0 mg/kg/injection, schedule: Q01DX005 (ip), vehicle: Klucel (hydroxypropylcellulose) (HPC)): 95 % of control

SMILES: CCOc1c(N=Nc2ccccc2O)c(C)nn1C(N)=S
- T/C (dose: 3.75 mg/kg/injection, schedule: Q01DX005 (ip), vehicle: Klucel (hydroxypropylcellulose) (HPC)): 103 % of control
- T/C (dose: 7.5 mg/kg/injection, schedule: Q01DX005 (ip), vehicle: Klucel (hydroxypropylcellulose) (HPC)): 102 % of control
- T/C (dose: 15.0 mg/kg/injection, schedule: Q01DX005 (ip), vehicle: Klucel (hydroxypropylcellulose) (HPC)): 104 % of control and 95 % of control

SMILES: CC(=O)N(c1c(N)[nH]c(=O)n(C)c1=O)C1OC(CO)C(O)C(O)C1O (stereo not drawn)
- T/C (dose: 60.0 mg/kg/injection, schedule: Q01DX005 (ip), vehicle: saline): 99 % of control
- T/C (dose: 120.0 mg/kg/injection, schedule: Q01DX005 (ip), vehicle: saline): 99 % of control
- T/C (dose: 240.0 mg/kg/injection, schedule: Q01DX005 (ip), vehicle: saline): 97 % of control

SMILES: Cc1[nH]c2ccc(N(C)C)cc2c(=O)c1CN1CCCCC1
- T/C [4]: 106 % of control
- T/C [5]: 100 % of control
- T/C [6]: 108 % of control

SMILES: CCN(CC)CCn1c2c(c3ccc(OC)cc31)CCN1CC3CC(OC(=O)c4cc(OC)c(OC)c(OC)c4)C(OC)C(C(=O)OC)C3CC21 (stereo not drawn)
- T/C (dose: 25.0 mg/kg/injection, schedule: Q01DX005 (ip), vehicle: saline): 97 % of control
- T/C (dose: 50.0 mg/kg/injection, schedule: Q01DX005 (ip), vehicle: saline): 96 % of control
- T/C (dose: 100.0 mg/kg/injection, schedule: Q01DX005 (ip), vehicle: saline): 101 % of control
- T/C (dose: 200.0 mg/kg/injection, schedule: Q01DX005 (ip), vehicle: saline): 106 % of control

SMILES: COc1cccc2c1oc1c3ccc(O)cc3oc(=O)c21
- T/C (dose: 6.2 mg/kg/injection, schedule: Q01DX007 (ip), vehicle: carboxymethylcellulose (CMC)): 91 % of control

SMILES: Nc1cc(=O)[nH]c(=O)[nH]1
- T/C [8]: 99 % of control
- T/C [9]: 100 % of control
- T/C [2]: 100 % of control
- T/C [3]: 98 % of control

SMILES: Nc1cccc(CCCCc2ccc(Cl)c(S(=O)(=O)F)c2)c1
- T/C [1]: 86 % of control
- T/C (dose: 100.0 mg/kg/injection, schedule: Q01DX009 (ip), vehicle: saline sonified): 86 % of control
- T/C (dose: 200.0 mg/kg/injection, schedule: Q01DX009 (ip), vehicle: saline sonified): 95 % of control

SMILES: COc1cc(Cc2n[nH]c(=S)[nH]c2=O)cc(OC)c1OC
- T/C (dose: 100.0 mg/kg/injection, schedule: Q04DX002 (ip), vehicle: Klucel (hydroxypropylcellulose) (HPC)): 110 % of control
- T/C (dose: 200.0 mg/kg/injection, schedule: Q04DX002 (ip), vehicle: Klucel (hydroxypropylcellulose) (HPC)): 98 % of control
- T/C (dose: 400.0 mg/kg/injection, schedule: Q04DX002 (ip), vehicle: Klucel (hydroxypropylcellulose) (HPC)): 100 % of control

SMILES: COc1ccc2c(c1O)-c1c(OC)c(O)cc3c1C(C2)NCC3 (stereo not drawn)
- T/C [10]: 96 % of control
- T/C (dose: 64.0 mg/kg/injection, schedule: Q01DX009 (ip), vehicle: Klucel (hydroxypropylcellulose) (HPC)): 93 % of control
- T/C (dose: 128.0 mg/kg/injection, schedule: Q01DX009 (ip), vehicle: Klucel (hydroxypropylcellulose) (HPC)): 100 % of control
- T/C (dose: 256.0 mg/kg/injection, schedule: Q01DX009 (ip), vehicle: Klucel (hydroxypropylcellulose) (HPC)): 102 % of control

SMILES: C=C(C)C1CCC2(C)CC3C(=C)CC(O)C(O)C3(C)CCC12 (stereo not drawn)
- T/C (dose: 4.0 mg/kg/injection, schedule: Q01DX009 (ip), vehicle: Klucel (hydroxypropylcellulose) (HPC)): 104 % of control
- T/C (dose: 8.0 mg/kg/injection, schedule: Q01DX009 (ip), vehicle: Klucel (hydroxypropylcellulose) (HPC)): 101 % of control
- T/C (dose: 16.0 mg/kg/injection, schedule: Q01DX009 (ip), vehicle: Klucel (hydroxypropylcellulose) (HPC)): 101 % of control
- T/C [10]: 104 % of control
